Reference: the NIST ThermoML archive (doi:10.1016/j.jct.2005.05.003)
± gives the expanded uncertainty stated by the source.

Experiment: mn = molality of the nth substance listed, in mol/kg
Details: Liquid, Vibrating tube method

[Ca+2].[Cl-].[Cl-] [calcium chloride] + CO
Details	mass density [kg/m3]
348.24 K, 14994 kPa, m1 = 0.1082	766.79 ± 0.53
348.24 K, 14997 kPa, m1 = 0.6588	815.48 ± 0.54
348.24 K, 15007 kPa, m1 = 0.2853	782.23 ± 0.53
348.24 K, 19987 kPa, m1 = 0.6588	820.39 ± 0.55
348.24 K, 19991 kPa, m1 = 0.2853	787.34 ± 0.55
348.24 K, 20008 kPa, m1 = 0.1082	772.12 ± 0.55
348.24 K, 24982 kPa, m1 = 0.1082	777.11 ± 0.57
348.24 K, 24994 kPa, m1 = 0.6588	825.04 ± 0.56
348.24 K, 24997 kPa, m1 = 0.2853	792.2 ± 0.57
348.24 K, 29990 kPa, m1 = 0.1082	781.87 ± 0.59
348.24 K, 29991 kPa, m1 = 0.2853	796.8 ± 0.58
348.24 K, 29992 kPa, m1 = 0.6588	829.46 ± 0.58
348.24 K, 34986 kPa, m1 = 0.2853	801.19 ± 0.6
348.24 K, 34998 kPa, m1 = 0.6588	833.71 ± 0.59
348.24 K, 35025 kPa, m1 = 0.1082	786.39 ± 0.61
348.24 K, 39992 kPa, m1 = 0.1082	790.73 ± 0.63
348.24 K, 40048 kPa, m1 = 0.6588	837.76 ± 0.61
348.24 K, 40055 kPa, m1 = 0.2853	805.38 ± 0.63
373.24 K, 517 kPa, m1 = 2.393	904.38 ± 0.55
373.24 K, 4985 kPa, m1 = 2.393	909.14 ± 0.56
373.24 K, 10000 kPa, m1 = 2.393	914.19 ± 0.56
373.24 K, 14988 kPa, m1 = 2.393	918.95 ± 0.57
373.24 K, 20003 kPa, m1 = 2.393	923.48 ± 0.57
373.24 K, 25015 kPa, m1 = 2.393	927.81 ± 0.58
373.24 K, 29988 kPa, m1 = 2.393	931.93 ± 0.58
373.24 K, 35016 kPa, m1 = 2.393	935.94 ± 0.59
373.24 K, 40000 kPa, m1 = 2.393	939.74 ± 0.59
373.26 K, 523 kPa, m1 = 0.2853	738.51 ± 0.47
373.26 K, 527 kPa, m1 = 0.1082	722.32 ± 0.47
373.26 K, 534 kPa, m1 = 0.6588	773.01 ± 0.49
373.26 K, 4997 kPa, m1 = 0.2853	745.17 ± 0.49
373.26 K, 4999 kPa, m1 = 0.1082	729.31 ± 0.48
373.26 K, 5013 kPa, m1 = 0.6588	779.26 ± 0.5
373.26 K, 9996 kPa, m1 = 0.2853	752.01 ± 0.51
373.26 K, 10000 kPa, m1 = 0.6588	785.66 ± 0.52
373.26 K, 10001 kPa, m1 = 0.1082	736.45 ± 0.5
373.26 K, 14984 kPa, m1 = 0.2853	758.3 ± 0.53
373.26 K, 14986 kPa, m1 = 0.6588	791.62 ± 0.53
373.26 K, 15009 kPa, m1 = 0.1082	743.03 ± 0.53
373.26 K, 19980 kPa, m1 = 0.2853	764.17 ± 0.55
373.26 K, 19981 kPa, m1 = 0.1082	749.09 ± 0.55
373.26 K, 20010 kPa, m1 = 0.6588	797.23 ± 0.55
373.26 K, 24999 kPa, m1 = 0.2853	769.7 ± 0.57
373.26 K, 25000 kPa, m1 = 0.6588	802.48 ± 0.57
373.26 K, 25016 kPa, m1 = 0.1082	754.83 ± 0.57
373.26 K, 29995 kPa, m1 = 0.1082	760.17 ± 0.6
373.26 K, 29996 kPa, m1 = 0.6588	807.45 ± 0.58
373.26 K, 30000 kPa, m1 = 0.2853	774.89 ± 0.59
373.26 K, 34993 kPa, m1 = 0.2853	779.79 ± 0.62
373.26 K, 35000 kPa, m1 = 0.6588	812.19 ± 0.6
373.26 K, 35003 kPa, m1 = 0.1082	765.25 ± 0.62
373.26 K, 40001 kPa, m1 = 0.6588	816.69 ± 0.62
373.26 K, 40004 kPa, m1 = 0.2853	784.46 ± 0.64
373.26 K, 40011 kPa, m1 = 0.1082	770.07 ± 0.65
398.25 K, 888 kPa, m1 = 2.393	878.49 ± 0.54
398.25 K, 5007 kPa, m1 = 2.393	883.68 ± 0.55
398.25 K, 10016 kPa, m1 = 2.393	889.54 ± 0.55
398.25 K, 14986 kPa, m1 = 2.393	895.06 ± 0.56
398.25 K, 19983 kPa, m1 = 2.393	900.25 ± 0.57
398.25 K, 24997 kPa, m1 = 2.393	905.15 ± 0.57
398.25 K, 29989 kPa, m1 = 2.393	909.82 ± 0.58
398.25 K, 34996 kPa, m1 = 2.393	914.29 ± 0.59
398.25 K, 40014 kPa, m1 = 2.393	918.56 ± 0.59
398.27 K, 880 kPa, m1 = 0.6588	744.38 ± 0.48
398.27 K, 899 kPa, m1 = 0.2853	709.27 ± 0.46
398.27 K, 901 kPa, m1 = 0.1082	692.84 ± 0.45
398.27 K, 4987 kPa, m1 = 0.6588	751.36 ± 0.49
398.27 K, 4995 kPa, m1 = 0.2853	716.79 ± 0.48
398.27 K, 4999 kPa, m1 = 0.1082	700.78 ± 0.47
398.27 K, 9984 kPa, m1 = 0.2853	725.04 ± 0.5
398.27 K, 9997 kPa, m1 = 0.6588	759.11 ± 0.51
398.27 K, 10005 kPa, m1 = 0.1082	709.46 ± 0.5
398.27 K, 14988 kPa, m1 = 0.2853	732.54 ± 0.53
398.27 K, 15011 kPa, m1 = 0.1082	717.28 ± 0.52
398.27 K, 15012 kPa, m1 = 0.6588	766.18 ± 0.53
398.27 K, 19999 kPa, m1 = 0.2853	739.43 ± 0.55
398.27 K, 20003 kPa, m1 = 0.1082	724.41 ± 0.55
398.27 K, 20013 kPa, m1 = 0.6588	772.68 ± 0.55
398.27 K, 24989 kPa, m1 = 0.2853	745.78 ± 0.58
398.27 K, 25000 kPa, m1 = 0.6588	778.71 ± 0.57
398.27 K, 25003 kPa, m1 = 0.1082	730.99 ± 0.58
398.27 K, 29985 kPa, m1 = 0.6588	784.37 ± 0.59
398.27 K, 30002 kPa, m1 = 0.2853	751.73 ± 0.6
398.27 K, 30013 kPa, m1 = 0.1082	737.16 ± 0.61
398.27 K, 34982 kPa, m1 = 0.1082	742.86 ± 0.64
398.27 K, 34983 kPa, m1 = 0.2853	757.27 ± 0.63
398.27 K, 35012 kPa, m1 = 0.6588	789.76 ± 0.61
398.27 K, 39992 kPa, m1 = 0.2853	762.54 ± 0.66
398.27 K, 39995 kPa, m1 = 0.1082	748.29 ± 0.67
398.27 K, 39999 kPa, m1 = 0.6588	794.79 ± 0.64
